Experimental findings from patent US20260207572A1, “METHODS AND COMPOSITIONS FOR TREATMENT OF SUBJECTS WITH HEPATIC IMPAIRMENTS” (ELEVAR THERAPEUTICS, INC., priority 2022, published 2026) are described below.

What all share (assay type): in vitro ADME
One data set addresses T1, CYP1A2 (Homo sapiens, UniProt P05177).
T1 sequence (P05177 1-516): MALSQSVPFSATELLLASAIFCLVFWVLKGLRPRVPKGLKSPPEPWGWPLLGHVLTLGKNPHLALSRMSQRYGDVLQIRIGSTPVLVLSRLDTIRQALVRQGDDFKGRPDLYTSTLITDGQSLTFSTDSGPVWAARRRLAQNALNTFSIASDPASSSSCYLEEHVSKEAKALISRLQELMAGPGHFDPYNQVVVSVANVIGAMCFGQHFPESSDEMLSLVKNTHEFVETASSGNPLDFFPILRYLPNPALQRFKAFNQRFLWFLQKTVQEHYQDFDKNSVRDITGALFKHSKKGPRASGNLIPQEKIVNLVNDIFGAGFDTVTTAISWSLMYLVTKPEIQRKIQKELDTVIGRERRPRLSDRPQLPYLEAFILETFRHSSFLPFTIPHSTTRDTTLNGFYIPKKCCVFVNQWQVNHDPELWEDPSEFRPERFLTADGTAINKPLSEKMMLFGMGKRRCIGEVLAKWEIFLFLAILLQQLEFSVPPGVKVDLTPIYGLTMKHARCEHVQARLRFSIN
The experiment in a line: In vitro CYP phenotyping and metabolism study, recombinant CYP1A2. The method, then:
(§1) Recently, an in vitro cytochrome (CYP) phenotyping and metabolism study was performed.

Another data set deals with T2, CYP2C8 (Homo sapiens, UniProt P10632).
T2 sequence (P10632 1-490): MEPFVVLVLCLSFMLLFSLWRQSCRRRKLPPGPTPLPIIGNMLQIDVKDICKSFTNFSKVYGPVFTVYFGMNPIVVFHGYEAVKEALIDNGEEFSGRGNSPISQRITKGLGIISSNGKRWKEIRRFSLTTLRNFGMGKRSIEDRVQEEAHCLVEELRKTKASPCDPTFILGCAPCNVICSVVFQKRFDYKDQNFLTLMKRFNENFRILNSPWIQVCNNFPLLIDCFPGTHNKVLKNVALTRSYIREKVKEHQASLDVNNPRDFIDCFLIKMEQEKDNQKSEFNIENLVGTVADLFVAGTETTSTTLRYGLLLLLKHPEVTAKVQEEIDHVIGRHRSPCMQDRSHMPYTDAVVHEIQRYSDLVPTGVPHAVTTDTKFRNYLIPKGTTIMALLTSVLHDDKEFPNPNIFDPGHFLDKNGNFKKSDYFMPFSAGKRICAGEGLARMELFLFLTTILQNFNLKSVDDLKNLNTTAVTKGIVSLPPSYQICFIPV
Description: In vitro CYP phenotyping and metabolism study, recombinant CYP2C8. How it is done:
as §1

A further data set has as its target CYP2C19 (Homo sapiens, UniProt P33261). Description: In vitro CYP phenotyping and metabolism study, recombinant CYP2C19. The method, then:
as §1

In the next data set the target is CYP2D6 (Homo sapiens, UniProt P10635). Description: In vitro CYP phenotyping and metabolism study, recombinant CYP2D6. How it is done: as §1
Sequence of CYP2D6 (P10635 whole entry): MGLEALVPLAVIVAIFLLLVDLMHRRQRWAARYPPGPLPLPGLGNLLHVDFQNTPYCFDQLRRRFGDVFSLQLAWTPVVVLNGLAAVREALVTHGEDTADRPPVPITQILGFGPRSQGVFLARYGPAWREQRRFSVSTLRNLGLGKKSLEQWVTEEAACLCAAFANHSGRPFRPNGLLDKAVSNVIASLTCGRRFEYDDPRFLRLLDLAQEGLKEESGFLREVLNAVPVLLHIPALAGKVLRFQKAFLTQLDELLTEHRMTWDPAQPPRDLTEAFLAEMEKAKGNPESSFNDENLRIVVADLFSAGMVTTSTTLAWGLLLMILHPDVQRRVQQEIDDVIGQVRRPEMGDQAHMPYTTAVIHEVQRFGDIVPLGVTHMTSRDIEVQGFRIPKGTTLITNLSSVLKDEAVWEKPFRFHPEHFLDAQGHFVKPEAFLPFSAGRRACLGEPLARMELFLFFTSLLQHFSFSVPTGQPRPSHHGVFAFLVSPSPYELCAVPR

Sequence of CYP2C19 (P33261 whole entry): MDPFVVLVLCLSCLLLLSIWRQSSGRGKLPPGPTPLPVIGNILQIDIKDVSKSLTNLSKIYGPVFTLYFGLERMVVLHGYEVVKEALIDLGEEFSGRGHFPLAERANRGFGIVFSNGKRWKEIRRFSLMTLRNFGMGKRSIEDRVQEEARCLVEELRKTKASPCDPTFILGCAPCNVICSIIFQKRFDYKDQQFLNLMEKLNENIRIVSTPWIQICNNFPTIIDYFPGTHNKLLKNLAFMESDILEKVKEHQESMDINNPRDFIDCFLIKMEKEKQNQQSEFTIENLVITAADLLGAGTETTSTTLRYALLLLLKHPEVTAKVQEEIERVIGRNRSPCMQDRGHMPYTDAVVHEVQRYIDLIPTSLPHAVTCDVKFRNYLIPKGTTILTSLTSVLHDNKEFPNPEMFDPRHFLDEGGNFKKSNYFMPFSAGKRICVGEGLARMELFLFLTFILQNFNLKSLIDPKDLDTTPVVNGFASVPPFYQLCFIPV

Regarding `N#CC1(c2ccc(NC(=O)c3cccnc3NCc3ccncc3)cc2)CCCC1` [Rivoceranib, N-[4-(1-cyanocyclopentyl)phenyl]-2-{[(pyridin-4-yl)methyl]amino} pyridine-3-carboxamide], the “rivoceranib consumed at 60 minute incubation” value at CYP1A2 (CYP1A2) was “less than 10%”; at CYP2C8 (CYP2C8) it was “less than 10%”; at CYP2C19 (CYP2C19), “less than 10%”; on CYP2D6 (CYP2D6), “more than 60%”. The “% Remaining at 60 minute incubation” value on CYP1A2 (Recombinant CYP1A2, 5 μM) is recorded as 94.7%; at CYP2C8 (Recombinant CYP2C8, 5 μM), 103%; at CYP2C19 (Recombinant CYP2C19, 5 μM) it was 98.9%; on CYP2D6 (Recombinant CYP2D6, 5 μM), 34.9%. The CLINT was 0.041 μL/minunte/mg on CYP1A2 (Recombinant CYP1A2, 5 μM); 0.037 μL/minunte/mg at CYP2C8 (Recombinant CYP2C8, 5 μM); 0.057 μL/minunte/mg on CYP2C19 (Recombinant CYP2C19, 5 μM); 0.587 μL/minunte/mg on CYP2D6 (Recombinant CYP2D6, 5 μM). Also, the half-life at 5 µM on CYP1A2 (human, Recombinant CYP1A2, 5 μM, read-out: t½) stood at 11.2 h; at CYP2C8 (human, Recombinant CYP2C8, 5 μM, read-out: t½), 12.6 h; on CYP2C19 (human, Recombinant CYP2C19, 5 μM, read-out: t½), 8.05 h; at CYP2D6 (human, Recombinant CYP2D6, 5 μM, read-out: t½), 0.787 h.
